Earlier results on 2 molecules are cited in patent publication EP0275444A1, “Pharmaceutical form for urapidil” (BYK GULDEN LOMBERG CHEMISCHE FABRIK GMBH, priority 1986, dated 1988).

Where two headings read alike, the source gives them in different places.

The conditions of series [1]: in vivo.

For the molecule `COc1ccccc1N1CCN(CCCNc2cc(=O)n(C)c(=O)n2C)CC1` [Urapidil, 6-({3-[4-(o-Methoxyphenyl)-1-piperazinyl]propyl}amino)-1,3-dimethyluracil], the Löslichkeit result (at the higher pH values of the intestine) was “ausreichende Löslichkeit”. Moreover, the Eliminationshalbwertzeit in series [1] was 2,7 Stunden.

With `OCCN(CCO)c1nc(N2CCCCC2)c2nc(N(CCO)CCO)nc(N3CCCCC3)c2n1` [Dipyridamol], the Löslichkeit result (above pH 4, in water) was “praktisch wasserunlöslich”.
